Calls of active or inactive are those of the source. The rule behind the calls is not given here.
Key:
Mus musculus [1] = experiment: Anti-glaucoma activity in magnetic microbead induced occlusion C57BL/6J mouse model assessed as reduction in intraocular pressure at 441.27 uM,TOP administration on right eye measured after 1 hr by tonometric analysis; assay type: functional, organism-based
Mus musculus [2] = experiment: Anti-glaucoma activity in magnetic microbead induced occlusion C57BL/6J mouse model assessed as increase in retinal ganglion cell population at 441.27 uM,TOP administrated on right eye thrice a day for 21 days by immunofluorescence based confocal microscopic analysis; assay type: functional, organism-based; details: time 21.0 day
[3] = Toxicity in New Zealand rabbit assessed as appearance of conjunctival congestion by measuring ocular irritation score at 0.028 % TOP administration on left eye measured after 1 day by draize eye irritation test; assay type: tissue-based, Oryctolagus cuniculus; details: in vivo, topical_or_ocular, 24 h
[4] = Toxicity in New Zealand rabbit assessed as appearance of conjunctival congestion by measuring ocular irritation score at 0.028 % TOP administration on left eye measured after 2 days by draize eye irritation test; assay type: tissue-based, Oryctolagus cuniculus; details: in vivo, topical_or_ocular, 48 h, time 2 day
[5] = Toxicity in New Zealand rabbit assessed as appearance of conjunctival congestion by measuring ocular irritation score at 0.028 % TOP administration on left eye measured after 3 days by draize eye irritation test; assay type: tissue-based, Oryctolagus cuniculus; details: in vivo, topical_or_ocular, 72 h, time 3 day
[6] = Toxicity in New Zealand rabbit assessed as appearance of conjunctival congestion by measuring ocular irritation score at 0.028 % TOP administration on left eye measured after 4 days by draize eye irritation test; assay type: tissue-based, Oryctolagus cuniculus; details: in vivo, topical_or_ocular, 96 h, time 4 day
[7] = Toxicity in New Zealand rabbit assessed as appearance of conjunctival congestion by measuring ocular irritation score at 0.028 % TOP administration on left eye measured after 5 days by draize eye irritation test; assay type: tissue-based, Oryctolagus cuniculus; details: in vivo, topical_or_ocular, 120 h, time 5 day
[8] = Toxicity in New Zealand rabbit assessed as appearance of conjunctival congestion by measuring ocular irritation score at 0.028 % TOP administration on left eye measured after 6 days by draize eye irritation test; assay type: tissue-based, Oryctolagus cuniculus; details: in vivo, topical_or_ocular, 144 h, time 6 day
[9] = Toxicity in New Zealand rabbit assessed as appearance of conjunctival congestion by measuring ocular irritation score at 0.028 % TOP administration on left eye measured after 7 days by draize eye irritation test; assay type: tissue-based, Oryctolagus cuniculus; details: in vivo, topical_or_ocular, 168 h, time 7 day
[10] = Toxicity in New Zealand rabbit assessed as appearance of conjunctival congestion by measuring incidence of ocular irritation at 0.028 % TOP administration on left eye measured for 5 days by draize eye irritation test; assay type: tissue-based, Oryctolagus cuniculus; details: in vivo, topical_or_ocular, 120 h, time 5 day
[11] = Toxicity in chicken embryo chorioallantoic membrane assessed as irritation score at 1.55 mM measured after 5 mins in presence of methyl 3-(nitrooxy)benzoate by microscopic analysis; assay type: tissue-based, Gallus gallus; details: in vivo, 1550 µM
[12] = molecular target: Rho-associated protein kinase 1 (Homo sapiens, UniProt Q13464); experiment: Inhibition of ROCK1 (unknown origin) incubated for 10 mins in presence of ATP by mobility shift assay
[13] = molecular target: Rho-associated protein kinase 2 (Homo sapiens, UniProt O75116); experiment: Inhibition of ROCK2 (unknown origin) incubated for 60 mins in presence of ATP by mobility shift assay
Sequence of Rho-associated protein kinase 2 (O75116 whole entry): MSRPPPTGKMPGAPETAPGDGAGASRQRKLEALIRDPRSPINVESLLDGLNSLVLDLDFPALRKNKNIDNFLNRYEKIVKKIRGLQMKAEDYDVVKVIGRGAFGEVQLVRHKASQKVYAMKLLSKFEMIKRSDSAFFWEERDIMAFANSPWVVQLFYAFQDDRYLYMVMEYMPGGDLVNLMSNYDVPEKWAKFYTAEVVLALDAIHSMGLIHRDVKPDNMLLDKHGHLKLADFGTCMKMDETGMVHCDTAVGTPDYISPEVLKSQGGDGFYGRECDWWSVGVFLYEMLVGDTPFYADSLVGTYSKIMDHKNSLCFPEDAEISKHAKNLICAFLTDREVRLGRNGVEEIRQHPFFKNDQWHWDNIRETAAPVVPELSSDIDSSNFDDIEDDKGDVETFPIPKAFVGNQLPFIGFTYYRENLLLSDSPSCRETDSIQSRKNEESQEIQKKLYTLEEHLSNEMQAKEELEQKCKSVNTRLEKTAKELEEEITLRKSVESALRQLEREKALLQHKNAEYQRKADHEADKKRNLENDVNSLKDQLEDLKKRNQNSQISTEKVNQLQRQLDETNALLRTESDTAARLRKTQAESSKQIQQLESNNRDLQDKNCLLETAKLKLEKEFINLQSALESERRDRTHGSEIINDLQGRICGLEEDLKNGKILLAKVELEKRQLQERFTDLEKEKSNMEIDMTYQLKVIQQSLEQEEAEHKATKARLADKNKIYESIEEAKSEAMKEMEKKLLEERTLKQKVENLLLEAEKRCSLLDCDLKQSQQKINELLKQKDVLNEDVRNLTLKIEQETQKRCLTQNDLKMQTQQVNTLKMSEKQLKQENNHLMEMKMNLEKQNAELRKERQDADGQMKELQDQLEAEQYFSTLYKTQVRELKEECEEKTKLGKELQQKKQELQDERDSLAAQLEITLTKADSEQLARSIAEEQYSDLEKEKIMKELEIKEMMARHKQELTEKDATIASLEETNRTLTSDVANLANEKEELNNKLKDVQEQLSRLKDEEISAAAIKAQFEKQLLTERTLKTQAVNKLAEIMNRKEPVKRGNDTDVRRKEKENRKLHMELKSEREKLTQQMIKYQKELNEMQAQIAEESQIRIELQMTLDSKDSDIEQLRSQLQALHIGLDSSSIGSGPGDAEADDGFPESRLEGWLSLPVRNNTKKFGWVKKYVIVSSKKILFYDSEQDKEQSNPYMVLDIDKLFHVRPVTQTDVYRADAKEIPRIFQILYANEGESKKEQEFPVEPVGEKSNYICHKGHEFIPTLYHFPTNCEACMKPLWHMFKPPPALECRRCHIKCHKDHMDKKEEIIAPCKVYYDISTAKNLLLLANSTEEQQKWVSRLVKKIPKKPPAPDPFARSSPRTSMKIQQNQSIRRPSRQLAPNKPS

Sequence of Rho-associated protein kinase 1 (Q13464 whole entry): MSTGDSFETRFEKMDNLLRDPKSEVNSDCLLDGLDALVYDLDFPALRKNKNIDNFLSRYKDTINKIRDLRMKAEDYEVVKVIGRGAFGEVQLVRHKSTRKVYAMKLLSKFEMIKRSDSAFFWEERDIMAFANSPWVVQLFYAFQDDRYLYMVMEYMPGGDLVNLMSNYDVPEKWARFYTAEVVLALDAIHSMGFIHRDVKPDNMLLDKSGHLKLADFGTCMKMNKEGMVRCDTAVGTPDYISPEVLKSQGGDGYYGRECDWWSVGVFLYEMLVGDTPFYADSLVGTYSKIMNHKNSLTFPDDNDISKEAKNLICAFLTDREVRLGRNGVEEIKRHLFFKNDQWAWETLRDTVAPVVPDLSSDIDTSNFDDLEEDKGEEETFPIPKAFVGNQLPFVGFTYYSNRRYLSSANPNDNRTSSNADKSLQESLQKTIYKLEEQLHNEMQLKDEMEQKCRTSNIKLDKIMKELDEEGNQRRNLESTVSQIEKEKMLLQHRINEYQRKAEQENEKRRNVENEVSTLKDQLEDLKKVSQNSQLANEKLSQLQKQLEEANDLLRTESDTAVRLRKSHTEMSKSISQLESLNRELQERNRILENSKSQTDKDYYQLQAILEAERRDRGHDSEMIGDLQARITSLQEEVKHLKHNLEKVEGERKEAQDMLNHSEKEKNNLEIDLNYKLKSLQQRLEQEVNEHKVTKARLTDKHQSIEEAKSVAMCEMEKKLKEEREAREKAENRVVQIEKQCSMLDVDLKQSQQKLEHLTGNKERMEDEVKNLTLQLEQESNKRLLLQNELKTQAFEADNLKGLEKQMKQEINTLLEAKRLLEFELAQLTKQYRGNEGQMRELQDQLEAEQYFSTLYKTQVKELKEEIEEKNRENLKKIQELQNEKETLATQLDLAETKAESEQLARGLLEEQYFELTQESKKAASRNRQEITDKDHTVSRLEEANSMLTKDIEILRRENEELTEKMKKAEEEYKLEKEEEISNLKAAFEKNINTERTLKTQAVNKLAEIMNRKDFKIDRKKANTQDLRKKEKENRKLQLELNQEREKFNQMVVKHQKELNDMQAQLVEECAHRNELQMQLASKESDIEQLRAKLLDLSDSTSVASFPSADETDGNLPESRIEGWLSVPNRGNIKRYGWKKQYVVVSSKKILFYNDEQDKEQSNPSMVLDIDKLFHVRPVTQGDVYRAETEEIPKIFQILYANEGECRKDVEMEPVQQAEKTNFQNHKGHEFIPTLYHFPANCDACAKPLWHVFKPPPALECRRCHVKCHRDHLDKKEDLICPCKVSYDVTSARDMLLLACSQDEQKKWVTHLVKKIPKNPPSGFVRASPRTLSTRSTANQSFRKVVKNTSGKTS

| IC50 [12] [nM] | IC50 [13] [nM] | Structure (SMILES) | Activity (Mus musculus [1]) | Activity (Mus musculus [2]) | Activity [3] | Activity [4] | Activity [5] | Activity [6] | Activity [7] | Activity [8] | Activity [9] | Activity [10] [%] | Activity [11] |
| --- | --- | --- | --- | --- | --- | --- | --- | --- | --- | --- | --- | --- | --- |
|  |  | Cc1ccc(C(=O)OCc2ccc([C@@H](CN)C(=O)Nc3ccc4cnccc4c3)cc2)c(C)c1 | Active | Active | 3.33 | 3.67 | 3 | 3.67 | 2.33 | 1.33 | 1 | 100 | Non-Toxic |
| 35.4 | 25.3 | NC[C@H](C(=O)Nc1ccc2cnccc2c1)c1ccc(COC(=O)c2cccc(CO[N+](=O)[O-])c2)cc1 |  |  |  |  |  |  |  |  |  |  |  |
|  | 13.1 | C[C@H]1CNCCCN1S(=O)(=O)c1cccc2cncc(F)c12 |  |  |  |  |  |  |  |  |  |  |  |
